In patent publication US8623859B2, “Bradykinin B1 antagonists” (Evotec AG, priority 2008, dated 2014):
Counter-ions that a name gives are not always drawn.

Target: T1, human B1 (Homo sapiens, UniProt P46663)
T1 construct: host or cells: CHO-K1
T1 sequence (P46663 1-353): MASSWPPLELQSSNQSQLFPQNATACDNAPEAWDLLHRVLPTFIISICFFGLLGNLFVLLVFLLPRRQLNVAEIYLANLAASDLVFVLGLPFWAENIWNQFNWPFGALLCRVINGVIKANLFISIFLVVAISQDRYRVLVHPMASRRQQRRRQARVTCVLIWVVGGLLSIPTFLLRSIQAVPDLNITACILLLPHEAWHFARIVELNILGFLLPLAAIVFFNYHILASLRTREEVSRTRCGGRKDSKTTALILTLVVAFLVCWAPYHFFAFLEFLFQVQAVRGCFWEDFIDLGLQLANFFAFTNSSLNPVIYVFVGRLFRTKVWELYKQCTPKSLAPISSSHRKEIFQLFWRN
Assay: Calcium flux assay for Bradykinin B1 antagonist, CHO-K1 cell line expressing human B1
Assay type: cell-based
Conditions: CHO-K1 cells expressing human B1, agonist Lys-(Des-Arg)-Bradykinin, read-out: Potency (IC50 value against human B1)
Method in brief: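 Inhibition of B1 agonist-evoked intracellular Ca2+ rise was followed by continuous fluorescence at 538 nm, with integrated, background-normalized signals plotted versus log compound concentration. Test compounds (eight 10-fold dilutions, triplicate, 1% DMSO final) were added 30 min at 25° C beforehand to Fluo-4AM-loaded human B1 CHO-K1 cells in pH 7.4 assay buffer.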

IC50 [nM] | Compound
< 10 | COc1cc(C)c(S(=O)(=O)N(Cc2nc(C(=O)N3CCC(O)(CN4CCN(C)CC4)CC3)co2)C2CC2)c(C)c1 [Ex 223, N-Cyclopropyl-N-{[4-({4-hydroxy-4-[(4-methylpiperazin-1-yl)methyl]piperidin-1-yl}carbonyl)-1,3-oxazol-2-yl]methyl}-4-methoxy-2,6-dimethylbenzenesulfonamide trifluoroacetate]
100 to 1000 | COc1cc(C)c(S(=O)(=O)N(Cc2nc(C(=O)N3CCN(c4cccnc4)CC3)co2)C2CC2)c(C)c1 [Ex 226, N-Cyclopropyl-4-methoxy-2,6-dimethyl-N-({4-[(4-pyridin-3-ylpiperazin-1-yl)carbonyl]-1,3-oxazol-2-yl}methyl)benzenesulfonamide]
100 to 1000 | COc1cc(C)c(S(=O)(=O)N(Cc2nc(C(=O)N3CCN(Cc4ccccn4)CC3)co2)C2CC2)c(C)c1 [Ex 227, N-Cyclopropyl-4-methoxy-2,6-dimethyl-N-[(4-{[4-(pyridin-2-ylmethyl)piperazin-1-yl]carbonyl}-1,3-oxazol-2-yl)methyl]benzenesulfonamide trifluoroacetate]
10 to 100 | COc1cc(C)c(S(=O)(=O)N(Cc2nc(C(=O)N3CCN(CCc4ccccn4)CC3)co2)C2CC2)c(C)c1 [Ex 228, N-Cyclopropyl-4-methoxy-2,6-dimethyl-N-[(4-{[4-(2-pyridin-2-ylethyl)piperazin-1-yl]carbonyl}-1,3-oxazol-2-yl)methyl]benzenesulfonamide trifluoroacetate]
100 to 1000 | COc1cc(C)c(S(=O)(=O)N(Cc2nc(C(=O)N3CCC(C(=O)N4CCN(C)CC4)CC3)co2)C2CC2)c(C)c1 [Ex 229, N-Cyclopropyl-4-methoxy-2,6-dimethyl-N-{[4-({4-[(4-methylpiperazin-1-yl)carbonyl]piperidin-1-yl}carbonyl)-1,3-oxazol-2-yl]methyl}benzenesulfonamide trifluoroacetate]
< 10 | COc1cc(C)c(S(=O)(=O)N(Cc2nc(C(=O)N3CCN(CC4CCNCC4)CC3)co2)C2CC2)c(C)c1 [Ex 230, N-Cyclopropyl-4-methoxy-2,6-dimethyl-N-[(4-{[4-(piperidin-4-ylmethyl)piperazin-1-yl]carbonyl}-1,3-oxazol-2-yl)methyl]benzenesulfonamide trifluoroacetate]
10 to 100 | COc1cc(C)c(S(=O)(=O)N(Cc2nc(C(=O)N3CCC(c4ccncc4)CC3)co2)C2CC2)c(C)c1 [Ex 231, N-Cyclopropyl-4-methoxy-2,6-dimethyl-N-({4-[(4-pyridin-4-ylpiperidin-1-yl)carbonyl]-1,3-oxazol-2-yl}methyl)benzenesulfonamide]
100 to 1000 | COc1cc(C)c(S(=O)(=O)N(Cc2nc(C(=O)N3CCN(Cc4ccncc4F)CC3)co2)C2CC2)c(C)c1 [Ex 232, N-Cyclopropyl-N-{[4-({4-[(3-fluoropyridin-4-yl)methyl]piperazin-1-yl}carbonyl)-1,3-oxazol-2-yl]methyl}-4-methoxy-2,6-dimethylbenzenesulfonamide trifluoroacetate]
10 to 100 | COc1cc(C)c(S(=O)(=O)N(Cc2nc(C(=O)N3CCN(Cc4c(Cl)cncc4Cl)CC3)co2)C2CC2)c(C)c1 [Ex 233, N-Cyclopropyl-N-{[4-({4-[(3,5-dichloropyridin-4-yl)methyl]piperazin-1-yl}carbonyl)-1,3-oxazol-2-yl]methyl}-4-methoxy-2,6-dimethylbenzenesulfonamide trifluoroacetate]
100 to 1000 | COc1cc(C)c(S(=O)(=O)N(Cc2nc(C(=O)N3CCN(Cc4ccc(F)nc4)CC3)co2)C2CC2)c(C)c1 [Ex 234, N-Cyclopropyl-N-{[4-({4-[(6-fluoropyridin-3-yl)methyl]piperazin-1-yl}carbonyl)-1,3-oxazol-2-yl]methyl}-4-methoxy-2,6-dimethylbenzenesulfonamide trifluoroacetate]
< 10 | COc1cc(C)c(S(=O)(=O)N(Cc2nc(C(=O)N3CCN(Cc4ccc(OC)nc4)CC3)co2)C2CC2)c(C)c1 [Ex 235, N-Cyclopropyl-4-methoxy-N-{[4-({4-[(6-methoxypyridin-3-yl)methyl]piperazin-1-yl}carbonyl)-1,3-oxazol-2-yl]methyl}-2,6-dimethylbenzenesulfonamide trifluoroacetate]
10 to 100 | COc1cc(C)c(S(=O)(=O)N(Cc2nc(C(=O)N3CCN(Cc4ccc(C(F)(F)F)nc4)CC3)co2)C2CC2)c(C)c1 [Ex 236, N-Cyclopropyl-4-methoxy-2,6-dimethyl-N-({4-[(4-{[6-(trifluoromethyl)pyridin-3-yl]methyl}piperazin-1-yl)carbonyl]-1,3-oxazol-2-yl}methyl)benzenesulfonamide trifluoroacetate]
< 10 | COc1cc(C)c(S(=O)(=O)N(Cc2nc(C(=O)N3CCN(Cc4ccc(N5CCCC5)nc4)CC3)co2)C2CC2)c(C)c1 [Ex 237, N-Cyclopropyl-4-methoxy-2,6-dimethyl-N-{[4-({4-[(6-pyrrolidin-1-ylpyridin-3-yl)methyl]piperazin-1-yl}carbonyl)-1,3-oxazol-2-yl]methyl}benzenesulfonamide trifluoroacetate]
10 to 100 | COc1cc(C)c(S(=O)(=O)N(Cc2nc(C(=O)N3CCC(O)(/C=C/c4ccncc4)CC3)co2)C2CC2)c(C)c1 [Ex 241, N-Cyclopropyl-N-{[4-({4-hydroxy-4-[(E)-2-pyridin-4-ylethenyl]piperidin-1-yl}carbonyl)-1,3-oxazol-2-yl]methyl}-4-methoxy-2,6-dimethylbenzenesulfonamide trifluoroacetate]

The next lines start with the molecule.

Compound | IC50 [nM]
Cc1cccc(Cl)c1S(=O)(=O)N(Cc1nc(C(=O)N(C)CCc2ccc(C3=NCCN3)cc2)co1)C1CC1 [Ex 219, 2-({[(2-Chloro-6-methylphenyl)sulfonyl](cyclopropyl)amino}methyl)-N-{2-[4-(4,5-dihydro-1H-imidazol-2-yl)phenyl]ethyl}-N-methyl-1,3-oxazole-4-carboxamide trifluoroacetate] | 10 to 100
Cc1cccc(Cl)c1S(=O)(=O)N(Cc1nc(C(=O)N(C)Cc2ccc(CN3CCCC3)cc2)co1)C1CC1 [Ex 220, 2-({[(2-Chloro-6-methylphenyl)sulfonyl](cyclopropyl)amino}methyl)-N-methyl-N-[4-(pyrrolidin-1-ylmethyl)benzyl]-1,3-oxazole-4-carboxamide trifluoroacetate] | 100 to 1000
CN(CCc1ccc(C2=NCCN2)cc1)C(=O)c1coc(CN(C2CC2)S(=O)(=O)c2ccccc2C(F)(F)F)n1 [Ex 221, 2-[(Cyclopropyl{[2-(trifluoromethyl)phenyl]sulfonyl}amino)methyl]-N-{2-[4-(4,5-dihydro-1H-imidazol-2-yl)phenyl]ethyl}-N-methyl-1,3-oxazole-4-carboxamide trifluoroacetate] | 100 to 1000
CN(Cc1ccc(CN2CCCC2)cc1)C(=O)c1coc(CN(C2CC2)S(=O)(=O)c2ccccc2C(F)(F)F)n1 [Ex 222, 2-[(Cyclopropyl{[2-(trifluoromethyl)phenyl]sulfonyl}amino)methyl]-N-methyl-N-[4-(pyrrolidin-1-ylmethyl)benzyl]-1,3-oxazole-4-carboxamide trifluoroacetate] | 100 to 1000
COc1cc(C)c(S(=O)(=O)N(Cc2nc(C(=O)N3CCC(O)(CN4CCOCC4)CC3)co2)C2CC2)c(C)c1 [Ex 224, N-Cyclopropyl-N-[(4-{[4-hydroxy-4-(morpholin-4-ylmethyl)piperidin-1-yl]carbonyl}-1,3-oxazol-2-yl)methyl]-4-methoxy-2,6-dimethylbenzenesulfonamide trifluoroacetate] | 10 to 100
COc1cc(C)c(S(=O)(=O)N(Cc2nc(C(=O)N(C)Cc3ccc4c(c3)CN(C)C4)co2)C2CC2)c(C)c1 [Ex 225, 2-({Cyclopropyl[(4-methoxy-2,6-dimethylphenyl)sulfonyl]amino}methyl)-N-methyl-N-[(2-methyl-2,3-dihydro-1H-isoindol-5-yl)methyl]-1,3-oxazole-4-carboxamide trifluoroacetate] | 10 to 100
COc1cc(C)c(S(=O)(=O)N(Cc2nc(C(=O)N3CCN(CC4CCN(C(=O)OC(C)(C)C)CC4)CC3)co2)C2CC2)c(C)c1 [Ex 238, trifluoroacetate] | 100 to 1000
COc1cc(C)c(S(=O)(=O)N(Cc2nc(C(=O)N3CCC(C4CCNCC4)CC3)co2)C2CC2)c(C)c1 [Ex 239, N-{[4-(4,4′-Bipiperidin-1-ylcarbonyl)-1,3-oxazol-2-yl]methyl}-N-cyclopropyl-4-methoxy-2,6-dimethylbenzenesulfonamide trifluoroacetate] | 100 to 1000
COc1cc(C)c(S(=O)(=O)N(Cc2nc(C(=O)N3CCC(O)(/C=C/c4cccnc4)CC3)co2)C2CC2)c(C)c1 [Ex 240, N-Cyclopropyl-N-{[4-({4-hydroxy-4-[(E)-2-pyridin-3-ylethenyl]piperidin-1-yl}carbonyl)-1,3-oxazol-2-yl]methyl}-4-methoxy-2,6-dimethylbenzenesulfonamide trifluoroacetate] | 10 to 100
CCN1CCN(CCCNC(=O)c2coc(CN(C3CC3)S(=O)(=O)c3c(C)cc(OC)cc3C)n2)CC1 [Ex 242, 2-({Cyclopropyl[(4-methoxy-2,6-dimethylphenyl)sulfonyl]amino}methyl)-N-[3-(4-ethylpiperazin-1-yl)propyl]-1,3-oxazole-4-carboxamide trifluoroacetate] | 10 to 100
